The values that follow come from patent US9494524B2, “Assay for analytes based on aggregation” (priority 2010, dated 2016).

Assay [1] deals with Phospholipase A2 from Naja mossambica mossambica. Type of assay: biochemical. The settings on record: in the presence of PLA2 and EDTA, room temperature (FIG. 3A). As to the method:
(§1) Methodology: Mixed solutions of 20 nm JR2EC-functionalised gold nanoparticles and 100 nm JR2KC2-loaded liposomes were prepared in accordance with Example 1. Absorption spectra were measured for the solutions under various solution conditions, as discussed below.
(§2) Methodology: JR2KC2 loaded liposomes, carboxyfluorescein (CF)-loaded liposomes and JR2EC-functionalised gold nanoparticles were prepared as described in Example 1. A mixture of PLA2 and chlorpromazine was added to the suspensions of liposomes. The assay response was recorded spectroscopically (in the UV-visible range) after incubating various concentrations of chlorpromazine with PLA2 (7 nM), functionalized gold nanoparticles (0.1 nM) and liposomes (1.4 nM) for 10 minutes at 37° C. For JR2KC2-loaded liposomes, the assay response was measured spectroscopically (in the UV-visible range) by recording spectra in the range 400-800 nm with 2 minute intervals using a Perkin Elmer Lambda 25 Spectrophotometer, and then extracting Δλmax.
(§3) This value was obtained by fitting the data to the monophasic Hill equation: […]

Assay [2] deals with T1, Phospholipase A2 from Naja mossambica mossambica.
T1 construct: IC50; other: CF-loaded liposomes, PLA2 7 nM, 37° C; other: PLA2 7 nM, gold nanoparticles 0.1 nM, liposomes 1.4 nM, 10 minutes at 37° C., Hill fit of Δλmax; lag time
Type of assay: biochemical. The procedure:
as §1, §2, §3

Assay [3] addresses T1, Phospholipase A2 from Naja mossambica mossambica. The assay can be described thus: traditional carboxyfluorescein (CF)-based fluorescence assay with CF-loaded liposomes. It is filed as biochemical. The following applies: PLA2 7 nM, 37° C. The procedure: Carboxyfluorescein-loaded liposomes were prepared similarly, except that the rehydration solution was 50 mM CF, 20 mM phosphate, adjusted to pH 7 with NaOH. The untrapped dye was removed by filtration on a Sephadex G-25 column with PBS as eluent. The total lipid concentration in all samples was determined using the Stewart assay.^21
Methodology: Liposomes containing 50 mM of carboxyfluorescein were prepared as described in Example 1. The final lipid concentration in the sample was 30 μg/ml. The liposomes were incubated with solutions of PLA2 at a variety of concentrations for 30 minutes. Experiments were performed on a Perkin Elmer fluorimeter with an excitation wavelength of 490 nm and an emission wavelength of 520 nm. […]
as §2, with “A mixture of PLA2 and chlorpromazine was added to the suspensions of liposomes.” left out

Another assay deals with PLA2. The following applies: literature values; read-out: IC50 previously reported; cited from earlier work.

Read-outs that look alike come from different tables or passages of the source.

Turning to `O=C(O)CN(CCN(CC(=O)O)CC(=O)O)CC(=O)O` [EDTA, ethylenediaminetetraacetic acid], the “effect on PLA2-induced nanoparticle aggregation” value in assay [1] is “prevented aggregation”.

For `CN(C)CCCN1c2ccccc2Sc2ccc(Cl)cc21` [chlorpromazine], the lag time entry in assay [2] (10 μM inhibitor, 7 nM PLA2, about 5 minutes without the inhibitor) was “approximately 15 minutes”. Besides, the “concentration of active non-inhibited PLA2 relative to actual PLA2 concentration” value in assay [2] (10 μM inhibitor, read from lag time (FIG. 12b)) is “about half”. The half-inhibitory concentration (IC50) was 6.5 µM in assay [2] (PLA2 7 nM, gold nanoparticles 0.1 nM, liposomes 1.4 nM, 10 minutes at 37° C., Hill fit of Δλmax); 10 µM in assay [3]; 10 to 100 µM in the assay on PLA2.

In general, IC50 refers to the concentration that gives 50% inhibition.
